Laboratory results reported in ChEMBL document CHEMBL1201862, “PubChem BioAssay data set” (2004).
The source made the active and inactive calls.

Tests used:
[1] = reduction of Shn3 3'UTR-driven luciferase in osteoblasts – cell-based, Clone20 osteoblasts, firefly luciferase, cherry-picked, dose response (AID 624132); type: functional;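 further: firefly luciferase luminescence from reporter carrying the Shn3 3'UTR in osteoblasts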
[2] = biological target: T1, Insulin-degrading enzyme (Homo sapiens, UniProt P14735); test: cellular IDE activation of Abeta substrate cleavage – fluorescence polarization, HEK cells, dose response (AID 588439); type: functional, cell-based
T1 sequence (P14735 whole entry): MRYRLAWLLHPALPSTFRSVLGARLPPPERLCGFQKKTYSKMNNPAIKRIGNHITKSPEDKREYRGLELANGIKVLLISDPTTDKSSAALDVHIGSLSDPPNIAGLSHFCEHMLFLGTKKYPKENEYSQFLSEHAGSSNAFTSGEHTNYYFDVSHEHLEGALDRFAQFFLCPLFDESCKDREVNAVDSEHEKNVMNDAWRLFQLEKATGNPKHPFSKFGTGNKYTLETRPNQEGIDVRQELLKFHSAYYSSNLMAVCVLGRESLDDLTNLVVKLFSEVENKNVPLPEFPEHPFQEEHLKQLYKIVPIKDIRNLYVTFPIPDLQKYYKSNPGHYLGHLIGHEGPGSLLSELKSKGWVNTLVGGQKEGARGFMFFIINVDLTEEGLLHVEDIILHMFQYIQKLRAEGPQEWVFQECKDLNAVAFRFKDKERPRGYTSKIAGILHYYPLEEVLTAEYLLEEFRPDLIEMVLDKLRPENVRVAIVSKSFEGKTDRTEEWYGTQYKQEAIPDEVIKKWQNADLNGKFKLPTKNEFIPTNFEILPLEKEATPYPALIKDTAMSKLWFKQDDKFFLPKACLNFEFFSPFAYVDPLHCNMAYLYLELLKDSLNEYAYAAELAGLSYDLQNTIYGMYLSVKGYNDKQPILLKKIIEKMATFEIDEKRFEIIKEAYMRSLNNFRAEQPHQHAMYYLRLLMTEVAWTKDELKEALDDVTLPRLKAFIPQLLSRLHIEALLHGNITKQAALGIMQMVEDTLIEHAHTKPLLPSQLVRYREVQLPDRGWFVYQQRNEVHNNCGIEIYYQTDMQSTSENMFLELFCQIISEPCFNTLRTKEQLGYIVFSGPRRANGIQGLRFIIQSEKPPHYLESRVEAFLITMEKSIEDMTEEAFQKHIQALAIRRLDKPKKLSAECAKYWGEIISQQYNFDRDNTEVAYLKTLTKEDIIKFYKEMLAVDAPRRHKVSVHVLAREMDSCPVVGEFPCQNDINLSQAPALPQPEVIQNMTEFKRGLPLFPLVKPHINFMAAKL

[3] = biological target: T2, Protein RecA (Mycobacterium tuberculosis, UniProt P9WHJ3); test: Fluorescence Cell-Free Homogeneous Dose Retest to Identify Inhibitors of RecA-Intein Splicing Activity. [Related pubchem assays (depositor defined):AID2097, AID2223, AID489010, AID492950]; type: functional
T2 sequence (P9WHJ3 whole entry): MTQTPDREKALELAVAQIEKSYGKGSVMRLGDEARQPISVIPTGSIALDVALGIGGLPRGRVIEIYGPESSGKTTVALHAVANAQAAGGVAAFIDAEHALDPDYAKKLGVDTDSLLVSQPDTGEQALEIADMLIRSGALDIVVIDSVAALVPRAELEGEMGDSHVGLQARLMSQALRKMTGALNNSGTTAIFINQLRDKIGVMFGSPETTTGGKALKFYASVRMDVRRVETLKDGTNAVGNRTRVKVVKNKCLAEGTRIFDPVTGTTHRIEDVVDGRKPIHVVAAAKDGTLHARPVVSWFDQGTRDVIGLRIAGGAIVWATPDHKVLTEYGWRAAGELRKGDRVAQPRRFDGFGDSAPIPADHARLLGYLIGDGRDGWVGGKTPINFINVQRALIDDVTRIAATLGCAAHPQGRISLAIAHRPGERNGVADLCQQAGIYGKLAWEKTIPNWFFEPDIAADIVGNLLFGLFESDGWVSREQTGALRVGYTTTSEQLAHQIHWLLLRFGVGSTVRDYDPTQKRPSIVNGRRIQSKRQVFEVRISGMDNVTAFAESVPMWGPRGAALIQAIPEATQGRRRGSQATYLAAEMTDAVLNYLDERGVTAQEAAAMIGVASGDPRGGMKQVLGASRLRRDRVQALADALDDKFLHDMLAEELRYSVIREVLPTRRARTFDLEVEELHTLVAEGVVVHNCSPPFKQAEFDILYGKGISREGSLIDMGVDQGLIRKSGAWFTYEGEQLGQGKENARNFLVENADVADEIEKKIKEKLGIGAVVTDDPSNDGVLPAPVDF

[4] = test system: HEK293; test: optical interference in Abeta FP readout, dose response, artefact control for IDE activator project, biochemical, fluorescence polarization (AID 588442); type: functional, cell-based; conditions: Homo sapiens
[5] = biological target: T3, Caspase-6 (Homo sapiens, UniProt P55212); test: inhibition of CASP6 peptide cleavage – biochemical, VEID-R110 fluorescence, cherry-pick, dose response (AID 720632)
T3 sequence (P55212 whole entry): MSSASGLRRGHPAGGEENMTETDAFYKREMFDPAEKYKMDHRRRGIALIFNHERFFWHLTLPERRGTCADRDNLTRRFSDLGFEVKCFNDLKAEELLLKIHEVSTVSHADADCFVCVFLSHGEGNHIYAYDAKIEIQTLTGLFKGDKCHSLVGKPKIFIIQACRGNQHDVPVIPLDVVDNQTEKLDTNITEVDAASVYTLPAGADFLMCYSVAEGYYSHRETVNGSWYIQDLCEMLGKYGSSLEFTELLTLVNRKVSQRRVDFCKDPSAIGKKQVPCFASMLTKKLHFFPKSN

[6] = biological target: Caspase-7 (Homo sapiens, UniProt P55210); test: activation of caspase-7 zymogen – biochemical, absorbance, counter-screen for procaspase-3 activator project, dose response (AID 489013)
Caspase-7, sequence (P55210 24-198 limits assumed): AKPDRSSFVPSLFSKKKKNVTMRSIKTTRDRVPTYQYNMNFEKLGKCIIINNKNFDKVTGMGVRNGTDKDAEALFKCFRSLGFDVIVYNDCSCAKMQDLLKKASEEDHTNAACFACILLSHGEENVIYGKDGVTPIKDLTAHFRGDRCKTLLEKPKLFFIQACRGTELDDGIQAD
Caspase-7, sequence (P55210 207-303 limits assumed): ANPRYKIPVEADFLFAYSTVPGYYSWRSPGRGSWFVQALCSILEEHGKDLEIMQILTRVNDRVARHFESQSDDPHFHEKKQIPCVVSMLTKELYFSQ

[7] = biological target: T4, Streptokinase A (Streptococcus pyogenes serotype M1, UniProt P10520); test: viability-normalized secreted streptokinase activity reduction – plasminogen activation absorbance, OD405, dose response (AID 1914); type: functional, Streptococcus pyogenes M1 GAS;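 further: secreted streptokinase activity via plasminogen activation per viability signal from cell pellet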
T4 sequence (P10520 whole entry): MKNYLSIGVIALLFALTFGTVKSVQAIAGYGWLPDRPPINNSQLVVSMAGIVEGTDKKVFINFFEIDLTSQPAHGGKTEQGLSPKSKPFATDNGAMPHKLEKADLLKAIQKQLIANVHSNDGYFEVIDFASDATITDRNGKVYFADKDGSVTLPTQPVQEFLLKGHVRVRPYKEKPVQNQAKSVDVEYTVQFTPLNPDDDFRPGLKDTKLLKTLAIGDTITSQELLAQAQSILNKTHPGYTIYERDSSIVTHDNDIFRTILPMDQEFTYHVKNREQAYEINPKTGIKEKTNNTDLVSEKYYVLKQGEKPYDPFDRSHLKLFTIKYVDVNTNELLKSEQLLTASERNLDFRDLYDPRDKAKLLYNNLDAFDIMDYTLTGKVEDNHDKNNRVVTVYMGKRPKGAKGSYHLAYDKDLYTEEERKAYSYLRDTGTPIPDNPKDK

In the case of `CCCCC(=O)NC(c1ccc(Cl)cc1)c1ccc2cccnc2c1O` (stereo not drawn), the AC50 [1] is reported as 0.772 µM (active).

For `COc1ccc2noc3c2c1C(=O)c1ccccc1-3`, the EC50 [2] was > 54.7 µM (inactive), the EC50 [3] was 3.61 µM (active) and the EC50 [4] was > 54.7 µM (inactive).

With `CCc1ccc2c(c1)C(NC(C)=O)C(=O)N2CCN1CCOCC1` (stereo not drawn) the AC50 [5] was 11.9 µM (active) and the EC50 [3] was 16.8 µM (active).

For `O=C(N/N=C/c1ccccc1O)/C(O)=C\C1=NC2(CCCC2)Cc2ccccc21`, the EC50 [6] was > 85.3 µM (inactive) and the EC50 [7] was > 150 µM (not active).
